The test system of the assay is L1210 leukemia ip in BDF1 mice, survival T/C. The assay can be described thus: NCI In Vivo Anticancer Drug Screen. Data for tumor model L1210 Leukemia (intraperitoneal) in B6D2F1 (BDF1) mice. The settings on record: endpoint: mean survival time, higher = longer survival. Put shortly: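 Tumor cells were implanted, animals were treated, and survival was followed. The result divides the treated measurement by the vehicle-control measurement.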

Where [1] appears, read: dose: 100.0 mg/kg/injection, schedule: Q01DX001 (ip), vehicle: saline.
Where [2] appears, read: dose: 200.0 mg/kg/injection, schedule: Q01DX001 (ip), vehicle: saline.
The mark [3] stands for this setting: dose: 400.0 mg/kg/injection, schedule: Q01DX001 (ip), vehicle: saline.
The mark [4] stands for this setting: dose: 100.0 mg/kg/injection, schedule: Q04DX003 (ip), vehicle: Klucel (hydroxypropylcellulose) (HPC).
[5] abbreviates: dose: 200.0 mg/kg/injection, schedule: Q04DX003 (ip), vehicle: Klucel (hydroxypropylcellulose) (HPC).

Toxic doses and inconclusive results are not listed.

For the compound `Cc1cc2ccccc2nc1-c1ccccc1F`, the T/C was 97 % of control under setting [1], 94 % of control under setting [2] and 88 % of control under setting [3].

On to `NSc1ccc(N)s1`, for which the T/C by setting is: (dose: 100.0 mg/kg/injection, schedule: Q04DX002 (ip), vehicle: saline with Tween-80) 108 % of control; (dose: 200.0 mg/kg/injection, schedule: Q04DX002 (ip), vehicle: saline with Tween-80) 101 % of control; (dose: 400.0 mg/kg/injection, schedule: Q04DX002 (ip), vehicle: saline with Tween-80) 108 % of control.

As for `O=C(O)CSc1ccc([N+](=O)[O-])cc1[N+](=O)[O-]`, the T/C by setting is: (dose: 100.0 mg/kg/injection, schedule: Q04DX002 (ip), vehicle: Klucel (hydroxypropylcellulose) (HPC)) 100 % of control; (dose: 200.0 mg/kg/injection, schedule: Q04DX002 (ip), vehicle: Klucel (hydroxypropylcellulose) (HPC)) 96 % of control; (dose: 400.0 mg/kg/injection, schedule: Q04DX002 (ip), vehicle: Klucel (hydroxypropylcellulose) (HPC)) 96 % of control.

`CCSCC1OC(n2cnc3c(N)ncnc32)CC1O` (stereo not drawn): the T/C under setting [1] was 98 % of control, the T/C under setting [2] is 104 % of control and the T/C under setting [3] is 92 % of control.

In the case of `CCSc1ncc(Br)c(Sc2nc(N)nc3nc[nH]c23)n1`, the T/C is, setting by setting: (dose: 1.5 mg/kg/injection, schedule: Q01DX Z (ip), vehicle: carboxymethylcellulose (CMC)) 107 % of control; (dose: 12.0 mg/kg/injection, schedule: Q01DX Z (ip), vehicle: carboxymethylcellulose (CMC)) 150 % of control; (dose: 25.0 mg/kg/injection, schedule: Q01DX001 (ip), vehicle: carboxymethylcellulose (CMC)) 121 % of control; (dose: 25.0 mg/kg/injection, schedule: Q01DX Z (ip), vehicle: methylcellulose (MC)) 86 % of control; (dose: 200.0 mg/kg/injection, schedule: Q01DX001 (ip), vehicle: carboxymethylcellulose (CMC)) 116 % of control.

Turning to `CN(C)c1ccccc1C(=O)N/N=C\c1ccc(Cl)cc1`, the T/C (dose: 100.0 mg/kg/injection, schedule: Q04DX002 (ip), vehicle: gum acacia) is 96 % of control; the T/C (dose: 200.0 mg/kg/injection, schedule: Q04DX002 (ip), vehicle: gum acacia) is 107 % of control; the T/C (dose: 400.0 mg/kg/injection, schedule: Q04DX002 (ip), vehicle: gum acacia) was 100 % of control.

In the case of `CN=NC(C)C`, the T/C (dose: 100.0 mg/kg/injection, schedule: Q01DX001 (ip), vehicle: saline with Tween-80) was 97 % of control; the T/C (dose: 200.0 mg/kg/injection, schedule: Q01DX001 (ip), vehicle: saline with Tween-80) was 107 % of control; the T/C (dose: 400.0 mg/kg/injection, schedule: Q01DX001 (ip), vehicle: saline with Tween-80) is 112 % of control.

With `CCC(CC)c1ccc2ccccc2c1`, the T/C reads like this: under setting [1], 100 % of control; under setting [2], 98 % of control; under setting [3], 101 % of control.

As to `CCOC(=O)NCS(=O)(=O)c1ccccc1-c1ccccc1`, the T/C is 93 % of control under setting [4] and 104 % of control under setting [5].

For `O=S(=O)(O)c1cccc(S(=O)(=O)O)c1`, the T/C is 105 % of control (dose: 100.0 mg/kg/injection, schedule: Q01DX009 (ip), vehicle: saline); 103 % of control (dose: 200.0 mg/kg/injection, schedule: Q01DX009 (ip), vehicle: saline); 97 % of control (dose: 400.0 mg/kg/injection, schedule: Q01DX009 (ip), vehicle: saline).

As to `NOCc1cc2c(cc1Cl)OCO2`, the T/C (dose: 100.0 mg/kg/injection, schedule: Q01DX001 (ip), vehicle: Klucel (hydroxypropylcellulose) (HPC)) was 94 % of control; the T/C (dose: 100.0 mg/kg/injection, schedule: Q01DX009 (ip), vehicle: Klucel (hydroxypropylcellulose) (HPC)) is 94 % of control; the T/C under setting [4] was 90 % of control; the T/C (dose: 200.0 mg/kg/injection, schedule: Q01DX001 (ip), vehicle: Klucel (hydroxypropylcellulose) (HPC)) was 88 % of control; the T/C (dose: 200.0 mg/kg/injection, schedule: Q01DX009 (ip), vehicle: Klucel (hydroxypropylcellulose) (HPC)) was 92 % of control; the T/C under setting [5] is 96 % of control. The T/C reads like this: (dose: 400.0 mg/kg/injection, schedule: Q01DX001 (ip), vehicle: Klucel (hydroxypropylcellulose) (HPC)) 100 % of control; (dose: 400.0 mg/kg/injection, schedule: Q01DX009 (ip), vehicle: Klucel (hydroxypropylcellulose) (HPC)) 86 % of control; (dose: 400.0 mg/kg/injection, schedule: Q04DX003 (ip), vehicle: Klucel (hydroxypropylcellulose) (HPC)) 96 % of control.

Consider `CC(C)CC(NC(=O)CNC(=O)OCc1ccccc1)C(=O)OCc1ccccc1` (stereo not drawn), for which the T/C (dose: 100.0 mg/kg/injection, schedule: Q04DX003 (ip), vehicle: other) is 100 % of control; the T/C (dose: 200.0 mg/kg/injection, schedule: Q04DX003 (ip), vehicle: other) is 108 % of control; the T/C (dose: 400.0 mg/kg/injection, schedule: Q04DX003 (ip), vehicle: other) is 102 % of control.

These data come from PubChem BioAssay AID248 (DTP/NCI, 2004).
